Each compound was assayed on G-402 (assay: cells). Details: Homo sapiens, G-402.
Type: functional, cell-based, Homo sapiens
Description: SANGER: Inhibition of human G-402 cell growth in a cell viability assay.

Row | Structure (SMILES) | IC50
1 | Cc1cc([N+](=O)[O-])ccc1NS(=O)(=O)c1cc(Cl)ccc1Cl | 4.65 µM

Each compound was assayed on HuO-3N1 (assay: cells). Details: Homo sapiens, HuO-3N1.
Type: functional, cell-based, Homo sapiens
Description: SANGER: Inhibition of human HuO-3N1 cell growth in a cell viability assay.

Row | Structure (SMILES) | IC50
2 | Cc1cc([N+](=O)[O-])ccc1NS(=O)(=O)c1cc(Cl)ccc1Cl | 13.4 µM

These compounds were tested on SW1990 (assay: cells). Details: Homo sapiens, SW1990.
Type: functional, cell-based, Homo sapiens
Description: SANGER: Inhibition of human SW1990 cell growth in a cell viability assay.

Row | Structure (SMILES) | IC50
3 | Cc1cc([N+](=O)[O-])ccc1NS(=O)(=O)c1cc(Cl)ccc1Cl | 5.38 µM

Each compound was assayed on MRK-nu-1 (assay: cells). Details: Homo sapiens, MRK-nu-1.
Type: functional, cell-based, Homo sapiens
Description: SANGER: Inhibition of human MRK-nu-1 cell growth in a cell viability assay.

Row | Structure (SMILES) | IC50
4 | Cc1cc([N+](=O)[O-])ccc1NS(=O)(=O)c1cc(Cl)ccc1Cl | 2730 nM

Each compound was assayed on IM-9 (assay: SANGER: Inhibition of human IM-9 cell growth in a cell viability assay.). Details: Homo sapiens, IM-9.
Type: functional, cell-based

Row | Structure (SMILES) | IC50
5 | Cc1cc([N+](=O)[O-])ccc1NS(=O)(=O)c1cc(Cl)ccc1Cl | 14.1 µM

These compounds were tested on NCI-H1882 (assay: cells). Details: Homo sapiens, NCI-H1882.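 Further: growth inhibition of the cell line, determined with a viability assay.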
Type: functional, cell-based, Homo sapiens
Description: SANGER: Inhibition of human NCI-H1882 cell growth in a cell viability assay.

Row | Structure (SMILES) | IC50
6 | Cc1cc([N+](=O)[O-])ccc1NS(=O)(=O)c1cc(Cl)ccc1Cl | > 32 µM

The compounds below were run on IST-SL2 (assay: cells). Details: Homo sapiens, IST-SL2.
Type: functional, cell-based, Homo sapiens
Description: SANGER: Inhibition of human IST-SL2 cell growth in a cell viability assay.

Row | Structure (SMILES) | IC50
7 | Cc1cc([N+](=O)[O-])ccc1NS(=O)(=O)c1cc(Cl)ccc1Cl | 8.24 µM

These compounds were tested on HuP-T4 (assay: cells). Details: Homo sapiens, HuP-T4.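 Further: cell viability assay measuring how much HuP-T4 cell growth is inhibited.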
Type: functional, cell-based, Homo sapiens
Description: SANGER: Inhibition of human HuP-T4 cell growth in a cell viability assay.

Row | Structure (SMILES) | IC50
8 | Cc1cc([N+](=O)[O-])ccc1NS(=O)(=O)c1cc(Cl)ccc1Cl | 1680 nM

These compounds were tested on SW1710 (assay: cells). Details: Homo sapiens, SW1710.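 Further: growth inhibition of SW1710 cells, determined with a cell viability assay.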
Type: functional, cell-based, Homo sapiens
Description: SANGER: Inhibition of human SW1710 cell growth in a cell viability assay.

Row | Structure (SMILES) | IC50
9 | Cc1cc([N+](=O)[O-])ccc1NS(=O)(=O)c1cc(Cl)ccc1Cl | 2330 nM

These compounds were tested on VM-CUB-1 (assay: cells). Details: Homo sapiens, VM-CUB-1.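 Further: cell viability assay measuring growth inhibition of the human VM-CUB-1 cell line.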
Type: functional, cell-based, Homo sapiens
Description: SANGER: Inhibition of human VM-CUB-1 cell growth in a cell viability assay.

Row | Structure (SMILES) | IC50
10 | Cc1cc([N+](=O)[O-])ccc1NS(=O)(=O)c1cc(Cl)ccc1Cl | 8.15 µM

Each compound was assayed on RVH-421 (assay: cells). Details: Homo sapiens, RVH-421.
Type: functional, cell-based, Homo sapiens
Description: SANGER: Inhibition of human RVH-421 cell growth in a cell viability assay.

Row | Structure (SMILES) | IC50
11 | Cc1cc([N+](=O)[O-])ccc1NS(=O)(=O)c1cc(Cl)ccc1Cl | 931 nM

Each compound was assayed on HCC1569 (assay: cells). Details: Homo sapiens, HCC1569.
Type: functional, cell-based, Homo sapiens
Description: SANGER: Inhibition of human HCC1569 cell growth in a cell viability assay.

Row | Structure (SMILES) | IC50
12 | Cc1cc([N+](=O)[O-])ccc1NS(=O)(=O)c1cc(Cl)ccc1Cl | 3.48 µM

Each compound was assayed on T47D (assay: cells). Details: Homo sapiens, T47D.
Type: functional, cell-based, Homo sapiens
Description: SANGER: Inhibition of human T47D cell growth in a cell viability assay.

Row | Structure (SMILES) | IC50
13 | Cc1cc([N+](=O)[O-])ccc1NS(=O)(=O)c1cc(Cl)ccc1Cl | 26.9 µM

The compounds below were run on NCI-H2141 (assay: cells). Details: Homo sapiens, NCI-H2141.
Type: functional, cell-based, Homo sapiens
Description: SANGER: Inhibition of human NCI-H2141 cell growth in a cell viability assay.

Row | Structure (SMILES) | IC50
14 | Cc1cc([N+](=O)[O-])ccc1NS(=O)(=O)c1cc(Cl)ccc1Cl | > 32 µM

These compounds were tested on CAL-54 (assay: cells). Details: Homo sapiens, CAL-54.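 Further: growth inhibition of CAL-54 cells, read out by a viability measurement.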
Type: functional, cell-based, Homo sapiens
Description: SANGER: Inhibition of human CAL-54 cell growth in a cell viability assay.

Row | Structure (SMILES) | IC50
15 | Cc1cc([N+](=O)[O-])ccc1NS(=O)(=O)c1cc(Cl)ccc1Cl | 5.44 µM

The compounds below were run on P31-FUJ (assay: cells). Details: Homo sapiens, P31-FUJ.
Type: functional, cell-based, Homo sapiens
Description: SANGER: Inhibition of human P31-FUJ cell growth in a cell viability assay.

Row | Structure (SMILES) | IC50
16 | Cc1cc([N+](=O)[O-])ccc1NS(=O)(=O)c1cc(Cl)ccc1Cl | 7.77 µM

What follows are compounds tested on CAL-12T (assay: cells). Details: Homo sapiens, CAL-12T.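 Further: growth inhibition of human CAL-12T cells, read out with a cell viability assay.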
Type: functional, cell-based, Homo sapiens
Description: SANGER: Inhibition of human CAL-12T cell growth in a cell viability assay.

Row | Structure (SMILES) | IC50
17 | Cc1cc([N+](=O)[O-])ccc1NS(=O)(=O)c1cc(Cl)ccc1Cl | 1020 nM

These compounds were tested on CA46 (assay: cells). Details: Homo sapiens, CA46.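 Further: growth inhibition of human CA46 cells, read out by a cell viability assay.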
Type: functional, cell-based, Homo sapiens
Description: SANGER: Inhibition of human CA46 cell growth in a cell viability assay.

Row | Structure (SMILES) | IC50
18 | Cc1cc([N+](=O)[O-])ccc1NS(=O)(=O)c1cc(Cl)ccc1Cl | 7.16 µM

Each compound was assayed on KYSE-410 (assay: cells). Details: Homo sapiens, KYSE-410.
Type: functional, cell-based, Homo sapiens
Description: SANGER: Inhibition of human KYSE-410 cell growth in a cell viability assay.

Row | Structure (SMILES) | IC50
19 | Cc1cc([N+](=O)[O-])ccc1NS(=O)(=O)c1cc(Cl)ccc1Cl | 5.83 µM

The compounds below were run on SNU-C1 (assay: cells). Details: Homo sapiens, SNU-C1.
Type: functional, cell-based, Homo sapiens
Description: SANGER: Inhibition of human SNU-C1 cell growth in a cell viability assay.

Row | Structure (SMILES) | IC50
20 | Cc1cc([N+](=O)[O-])ccc1NS(=O)(=O)c1cc(Cl)ccc1Cl | > 32 µM

The compounds below were run on Capan-2 (assay: cells). Details: Homo sapiens, Capan-2.
Type: functional, cell-based, Homo sapiens
Description: SANGER: Inhibition of human Capan-2 cell growth in a cell viability assay.

Row | Structure (SMILES) | IC50
21 | Cc1cc([N+](=O)[O-])ccc1NS(=O)(=O)c1cc(Cl)ccc1Cl | 8.17 µM

The compounds below were run on MHH-CALL-2 (assay: cells). Details: Homo sapiens, MHH-CALL-2.
Type: functional, cell-based, Homo sapiens
Description: SANGER: Inhibition of human MHH-CALL-2 cell growth in a cell viability assay.

Row | Structure (SMILES) | IC50
22 | Cc1cc([N+](=O)[O-])ccc1NS(=O)(=O)c1cc(Cl)ccc1Cl | 18.2 µM

The compounds below were run on ESS-1 (assay: cells). Details: Homo sapiens, ESS-1.
Type: functional, cell-based, Homo sapiens
Description: SANGER: Inhibition of human ESS-1 cell growth in a cell viability assay.

Row | Structure (SMILES) | IC50
23 | Cc1cc([N+](=O)[O-])ccc1NS(=O)(=O)c1cc(Cl)ccc1Cl | 7.38 µM

Each compound was assayed on NCI-H1417 (assay: cells). Details: Homo sapiens, NCI-H1417.
Type: functional, cell-based, Homo sapiens
Description: SANGER: Inhibition of human NCI-H1417 cell growth in a cell viability assay.

Row | Structure (SMILES) | IC50
24 | Cc1cc([N+](=O)[O-])ccc1NS(=O)(=O)c1cc(Cl)ccc1Cl | 23.2 µM

What follows are compounds tested on 5637 (assay: cells). Details: Homo sapiens.
Type: functional, cell-based, Homo sapiens
Description: SANGER: Inhibition of human 5637 cell growth in a cell viability assay.

Row | Structure (SMILES) | IC50
25 | Cc1cc([N+](=O)[O-])ccc1NS(=O)(=O)c1cc(Cl)ccc1Cl | 7.25 µM

The compounds below were run on OVCAR-5 (assay: cells). Details: Homo sapiens, OVCAR-5.
Type: functional, cell-based, Homo sapiens
Description: SANGER: Inhibition of human OVCAR-5 cell growth in a cell viability assay.

Row | Structure (SMILES) | IC50
26 | Cc1cc([N+](=O)[O-])ccc1NS(=O)(=O)c1cc(Cl)ccc1Cl | 23.6 µM

The compounds below were run on NCI-H345 (assay: cells). Details: Homo sapiens, NCI-H345.
Type: functional, cell-based, Homo sapiens
Description: SANGER: Inhibition of human NCI-H345 cell growth in a cell viability assay.

Row | Structure (SMILES) | IC50
27 | Cc1cc([N+](=O)[O-])ccc1NS(=O)(=O)c1cc(Cl)ccc1Cl | 17.8 µM

The compounds below were run on COLO-792 (assay: cells). Details: Homo sapiens, COLO-792.
Type: functional, cell-based, Homo sapiens
Description: SANGER: Inhibition of human COLO-792 cell growth in a cell viability assay.

Row | Structure (SMILES) | IC50
28 | Cc1cc([N+](=O)[O-])ccc1NS(=O)(=O)c1cc(Cl)ccc1Cl | 2010 nM

Each compound was assayed on HCC70 (assay: cells). Details: Homo sapiens, HCC70.
Type: functional, cell-based, Homo sapiens
Description: SANGER: Inhibition of human HCC70 cell growth in a cell viability assay.

Row | Structure (SMILES) | IC50
29 | Cc1cc([N+](=O)[O-])ccc1NS(=O)(=O)c1cc(Cl)ccc1Cl | 6.62 µM

These compounds were tested on MDA-MB-157 (assay: cells). Details: Homo sapiens, MDA-MB-157.
Type: functional, cell-based, Homo sapiens
Description: SANGER: Inhibition of human MDA-MB-157 cell growth in a cell viability assay.

Row | Structure (SMILES) | IC50
30 | Cc1cc([N+](=O)[O-])ccc1NS(=O)(=O)c1cc(Cl)ccc1Cl | 8.59 µM

Each compound was assayed on EFO-27 (assay: cells). Details: Homo sapiens, EFO-27.
Type: functional, cell-based, Homo sapiens
Description: SANGER: Inhibition of human EFO-27 cell growth in a cell viability assay.

Row | Structure (SMILES) | IC50
31 | Cc1cc([N+](=O)[O-])ccc1NS(=O)(=O)c1cc(Cl)ccc1Cl | 4.83 µM

Each compound was assayed on UO-31 (assay: cells). Details: Homo sapiens, UO-31.
Type: functional, cell-based, Homo sapiens
Description: SANGER: Inhibition of human U031 cell growth in a cell viability assay.

Row | Structure (SMILES) | IC50
32 | Cc1cc([N+](=O)[O-])ccc1NS(=O)(=O)c1cc(Cl)ccc1Cl | 8.66 µM

Each compound was assayed on SN12C (assay: cells). Details: Homo sapiens, SN12C.
Type: functional, cell-based, Homo sapiens
Description: SANGER: Inhibition of human SN12C cell growth in a cell viability assay.

Row | Structure (SMILES) | IC50
33 | Cc1cc([N+](=O)[O-])ccc1NS(=O)(=O)c1cc(Cl)ccc1Cl | 3.64 µM

The compounds below were run on T-24 (assay: cells). Details: Homo sapiens, T-24.
Type: functional, cell-based, Homo sapiens
Description: SANGER: Inhibition of human T-24 cell growth in a cell viability assay.

Row | Structure (SMILES) | IC50
34 | Cc1cc([N+](=O)[O-])ccc1NS(=O)(=O)c1cc(Cl)ccc1Cl | > 32 µM

The compounds below were run on LCLC-97TM1 (assay: cells). Details: Homo sapiens, LCLC-97TM1.
Type: functional, cell-based, Homo sapiens
Description: SANGER: Inhibition of human LCLC-97TM1 cell growth in a cell viability assay.

Row | Structure (SMILES) | IC50
35 | Cc1cc([N+](=O)[O-])ccc1NS(=O)(=O)c1cc(Cl)ccc1Cl | 3.18 µM

These compounds were tested on IGROV-1 (assay: cells). Details: Homo sapiens, IGROV-1.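 Further: reduction of IGROV-1 cell growth, read out with a viability assay.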
Type: functional, cell-based, Homo sapiens
Description: SANGER: Inhibition of human IGROV-1 cell growth in a cell viability assay.

Row | Structure (SMILES) | IC50
36 | Cc1cc([N+](=O)[O-])ccc1NS(=O)(=O)c1cc(Cl)ccc1Cl | 2660 nM

What follows are compounds tested on NCI-H889 (assay: cells). Details: Homo sapiens, NCI-H889.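 Further: cell growth inhibition of the cell line, read out with a viability assay.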
Type: functional, cell-based, Homo sapiens
Description: SANGER: Inhibition of human NCI-H889 cell growth in a cell viability assay.

Row | Structure (SMILES) | IC50
37 | Cc1cc([N+](=O)[O-])ccc1NS(=O)(=O)c1cc(Cl)ccc1Cl | > 32 µM

These compounds were tested on SW1463 (assay: cells). Details: Homo sapiens, SW1463.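 Further: growth inhibition of SW1463 cells, determined with a cell viability assay.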
Type: functional, cell-based, Homo sapiens
Description: SANGER: Inhibition of human SW1463 cell growth in a cell viability assay.

Row | Structure (SMILES) | IC50
38 | Cc1cc([N+](=O)[O-])ccc1NS(=O)(=O)c1cc(Cl)ccc1Cl | 7.85 µM

What follows are compounds tested on SK-MES-1 (assay: cells). Details: Homo sapiens, SK-MES-1.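 Further: growth inhibition of human SK-MES-1 cells, read out with a cell viability assay.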
Type: functional, cell-based, Homo sapiens
Description: SANGER: Inhibition of human SK-MES-1 cell growth in a cell viability assay.

Row | Structure (SMILES) | IC50
39 | Cc1cc([N+](=O)[O-])ccc1NS(=O)(=O)c1cc(Cl)ccc1Cl | 2070 nM

These compounds were tested on NCI-H520 (assay: cells). Details: Homo sapiens, NCI-H520.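 Further: growth inhibition of NCI-H520 cells, measured by a cell viability assay.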
Type: functional, cell-based, Homo sapiens
Description: SANGER: Inhibition of human NCI-H520 cell growth in a cell viability assay.

Row | Structure (SMILES) | IC50
40 | Cc1cc([N+](=O)[O-])ccc1NS(=O)(=O)c1cc(Cl)ccc1Cl | 6.2 µM

These compounds were tested on SW756 (assay: cells). Details: Homo sapiens, SW756.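 Further: growth inhibition of human SW756 cells, read out with a cell viability assay.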
Type: functional, cell-based, Homo sapiens
Description: SANGER: Inhibition of human SW756 cell growth in a cell viability assay.

Row | Structure (SMILES) | IC50
41 | Cc1cc([N+](=O)[O-])ccc1NS(=O)(=O)c1cc(Cl)ccc1Cl | 2970 nM

What follows are compounds tested on GDM-1 (assay: cells). Details: Homo sapiens, GDM-1.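 Further: cell viability readout used to measure growth inhibition of human GDM-1 cells.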
Type: functional, cell-based, Homo sapiens
Description: SANGER: Inhibition of human GDM-1 cell growth in a cell viability assay.

Row | Structure (SMILES) | IC50
42 | Cc1cc([N+](=O)[O-])ccc1NS(=O)(=O)c1cc(Cl)ccc1Cl | 8.37 µM

What follows are compounds tested on PANC-03-27 (assay: cells). Details: Homo sapiens, PANC-03-27.
Type: functional, cell-based, Homo sapiens
Description: SANGER: Inhibition of human PANC-03-27 cell growth in a cell viability assay.

Row | Structure (SMILES) | IC50
43 | Cc1cc([N+](=O)[O-])ccc1NS(=O)(=O)c1cc(Cl)ccc1Cl | 6.38 µM

What follows are compounds tested on NCI-H28 (assay: cells). Details: Homo sapiens, NCI-H28.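 Further: growth inhibition of human NCI-H28 cells, read out as cell viability.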
Type: functional, cell-based, Homo sapiens
Description: SANGER: Inhibition of human NCI-H28 cell growth in a cell viability assay.

Row | Structure (SMILES) | IC50
44 | Cc1cc([N+](=O)[O-])ccc1NS(=O)(=O)c1cc(Cl)ccc1Cl | 8.5 µM

Reference: ChEMBL document CHEMBL1201861, “Genomics of Drug Sensitity in Cancer screening data, Wellcome Trust Sanger Institute”
